Data as given in patent US9686985B2, “Fungicide N-cycloalkyl-N-bicyclicmethylene-carboxamide derivatives” (BAYER INTELLECTUAL PROPERTY GMBH, priority 2012, dated 2017).

How the values were obtained:
Uromyces appendiculatus = assay: Example G: in vivo preventive test on Uromyces appendiculatus (bean rust); settings: bean plants; for protection: summary over doses of 500 ppm and 100 ppm; for Efficacy: table G2
Method: Example G: In Vivo Preventive Test on Uromyces appendiculatus (Bean Rust) […] Bean plants (“Saxa” variety), sown in starter cups on a 50/50 peat soil pozzolana substrate and grown at 24° C., are treated at the 2 leaf stage (9 cm height) by spraying with the active ingredient prepared as described above. Plants, used as controls, are treated with the mixture of acetone/tween/DMSO/water not containing the active material. After 24 hours, the plants are contaminated by spraying the leaves with an aqueous suspension of Uromyces appendiculatus spores (150 000 spores per mL). The spores are collected from infected plants and are suspended in water containing 2.5 mL/L of Tween 80 at 10%. The contaminated bean plants are incubated for 24 hours at 20° C. and at 100% relative humidity, and then for 10 days at 20° C. and at 70-80% relative humidity. Grading (% of efficacy) is carried out 11 days after the contamination, in comparison with the control plants.

Pyrenophora teres = assay: Example N: in vivo preventive test on Pyrenophora teres (barley); settings: table N; 500 ppm; barley plants; grading 14 days after contamination
Method: Example N: In Vivo Preventive Test on Pyrenophora teres (Barley) […] Barley plants (“Plaisant” variety), sown in starter cups on a 50/50 peat soil pozzolana substrate and grown at 22° C., are treated at the 1 leaf stage (10 cm height) by spraying with the active ingredient prepared as described above. Plants, used as controls, are treated with the mixture of acetone/tween/DMSO/water not containing the active material. After 24 hours, the plants are contaminated by spraying the leaves with an aqueous suspension of Pyrenophora teres spores (12 000 spores per mL). The spores are collected from a 12-day-old culture. The contaminated barley plants are incubated for 48 hours at 20° C. and at 100% relative humidity, and then for 12 days at 20° C. at 70-80% relative humidity. Grading (% of efficacy) is carried out 14 days after the contamination, in comparison with the control plants.

[1] = log P by HPLC on reversed-phase column (EEC Directive 79/831 Annex V.A8); format: physicochemical; settings: HPLC C18, 40° C., 0.1% aqueous formic acid and acetonitrile gradient; for logP: Table 1
Method: In table 1, the log P values were determined in accordance with EEC Directive 79/831 Annex V.A8 by HPLC (High Performance Liquid Chromatography) on a reversed-phase column (C 18), using the method described below: Temperature: 40° C.; Mobile phases: 0.1% aqueous formic acid and acetonitrile; linear gradient from 10% acetonitrile to 90% acetonitrile. Calibration was carried out using unbranched alkan-2-ones (comprising 3 to 16 carbon atoms) with known log P values (determination of the log P values by the retention times using linear interpolation between two successive alkanones). lambda-max-values were determined using UV-spectra from 200 nm to 400 nm and the peak values of the chromatographic signals.

Row | Structure (SMILES) | protection (Uromyces appendiculatus) | Efficacy (Uromyces appendiculatus; dose 100 ppm) [%] | Efficacy (Uromyces appendiculatus; dose 500 ppm) [%] | Efficacy (Pyrenophora teres) [%] | logP [1] | chromatographic logP ([1]; reversed-phase C18 HPLC column, Table 2 (amines IIf), read-out: logP)
1 | Cn1cc(C(=O)N(CC2CCc3ccccc32)C2CC2)c(C(F)F)n1 (stereo not drawn) [CMP1, N-cyclopropyl-3-(difluoromethyl)-N-(2,3-dihydro-1H-inden-1-ylmethyl)-1-methyl-1H-pyrazole-4-carboxamide, reference compound] | high (at least 80%) to no protection | 0 | 13 |  |  | 
2 | Cc1cccc2c1CCC2CN(C(=O)c1cn(C)nc1C(F)F)C1CC1 (stereo not drawn) [CMP2, N-cyclopropyl-3-(difluoromethyl)-1-methyl-N-[(4-methyl-2,3-dihydro-1H-inden-1-yl)methyl]-1H-pyrazole-4-carboxamide, reference compound] | high (at least 80%) to no protection | 0 | 80 |  |  | 
3 | Cc1ccc2c(c1)CCC2CN(C(=O)c1cn(C)nc1C(F)F)C1CC1 (stereo not drawn) [CMP3, N-cyclopropyl-3-(difluoromethyl)-1-methyl-N-[(5-methyl-2,3-dihydro-1H-inden-1-yl)methyl]-1H-pyrazole-4-carboxamide, reference compound] | high (at least 80%) to no protection | 0 | 34 |  |  | 
4 | Cn1cc(C(=O)N(CC2CCc3c(F)cccc32)C2CC2)c(C(F)F)n1 (stereo not drawn) [CMP4, N-cyclopropyl-3-(difluoromethyl)-N-[(4-fluoro-2,3-dihydro-1H-inden-1-yl)methyl]-1-methyl-1H-pyrazole-4-carboxamide, reference compound] | high (at least 80%) to no protection | 0 | 6 |  |  | 
5 | Cn1cc(C(=O)N(CC2CC(C)(C)c3ccccc32)C2CC2)c(C(F)F)n1 (stereo not drawn) [CMP5, N-cyclopropyl-3-(difluoromethyl)-N-[(3,3-dimethyl-2,3-dihydro-1H-inden-1-yl)methyl]-1-methyl-1H-pyrazole-4-carboxamide, reference compound] | high (at least 80%) to no protection | 31 |  |  |  | 
6 | Cn1cc(C(=O)N(CC2CCc3cc(Cl)ccc32)C2CC2)c(C(F)F)n1 (stereo not drawn) [CMP6, N-[(5-chloro-2,3-dihydro-1H-inden-1-yl)methyl]-N-cyclopropyl-3-(difluoromethyl)-1-methyl-1H-pyrazole-4-carboxamide, reference compound] | high (at least 80%) to no protection | 0 | 19 |  |  | 
7 | Cn1cc(C(=O)N(CC2CCc3cccc(Cl)c32)C2CC2)c(C(F)F)n1 (stereo not drawn) [CMP7, N-[(7-chloro-2,3-dihydro-1H-inden-1-yl)methyl]-N-cyclopropyl-3-(difluoromethyl)-1-methyl-1H-pyrazole-4-carboxamide, reference compound] | high (at least 80%) to no protection | 0 | 0 |  |  | 
8 | Cn1nc(C(F)F)c(C(=O)N(CC2CCc3cccc(Cl)c32)C2CC2)c1Cl (stereo not drawn) [I.15] |  |  |  | 71 | 3.96 | 
9 | Cn1nc(C(F)F)c(C(=O)N(CC2CCCc3cccc(Cl)c32)C2CC2)c1Cl (stereo not drawn) [I.29] |  |  |  | 88 | 4.26 | 
10 | Cn1nc(C(F)F)c(C(=O)N(CC2CCOc3ccccc32)C2CC2)c1Cl (stereo not drawn) [I.32] |  |  |  | 88 | 3.17 | 
11 | Clc1ccc2c(c1)C(CNC1CC1)CCS2 (stereo not drawn) [IIf.19, N-[(6-chloro-3,4-dihydro-2H-thiochromen-4-yl)methyl]cyclopropanamine] |  |  |  |  |  | 1.26
